Patent publication US20210347727A1 (BLADE THERAPEUTICS, INC., priority 2017, published 2021)

How the values were obtained:
[1] = molecular target: T1, Human Calpain 2/NS1 (Homo sapiens, UniProt P17655); assay: Biochemical inhibition of calpain 2, continuous fluorescence (FRET substrate) assay; conditions: mean; read-out: Human Calpain 2/NS1 1C50 [sic] (nM)_MEAN
T1 sequence (P17655 1-700): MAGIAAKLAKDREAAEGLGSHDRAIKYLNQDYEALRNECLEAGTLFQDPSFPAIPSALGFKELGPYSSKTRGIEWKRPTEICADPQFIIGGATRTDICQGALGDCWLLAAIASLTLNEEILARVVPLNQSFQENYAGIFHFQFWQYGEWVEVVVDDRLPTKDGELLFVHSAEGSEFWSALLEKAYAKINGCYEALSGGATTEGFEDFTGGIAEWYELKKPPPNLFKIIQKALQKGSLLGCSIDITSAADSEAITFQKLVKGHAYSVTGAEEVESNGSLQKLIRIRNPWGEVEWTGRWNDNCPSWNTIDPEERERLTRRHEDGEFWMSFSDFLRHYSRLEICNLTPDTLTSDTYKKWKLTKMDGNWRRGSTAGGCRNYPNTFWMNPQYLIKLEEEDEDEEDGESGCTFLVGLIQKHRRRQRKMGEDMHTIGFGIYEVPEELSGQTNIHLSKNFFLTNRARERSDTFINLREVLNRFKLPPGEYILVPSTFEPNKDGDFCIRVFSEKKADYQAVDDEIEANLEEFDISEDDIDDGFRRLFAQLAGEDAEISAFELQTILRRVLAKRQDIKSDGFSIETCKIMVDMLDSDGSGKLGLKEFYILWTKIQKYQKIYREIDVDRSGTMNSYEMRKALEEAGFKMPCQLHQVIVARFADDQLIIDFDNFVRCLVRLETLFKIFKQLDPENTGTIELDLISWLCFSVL
T1 sequence (P04632 1-268 partner): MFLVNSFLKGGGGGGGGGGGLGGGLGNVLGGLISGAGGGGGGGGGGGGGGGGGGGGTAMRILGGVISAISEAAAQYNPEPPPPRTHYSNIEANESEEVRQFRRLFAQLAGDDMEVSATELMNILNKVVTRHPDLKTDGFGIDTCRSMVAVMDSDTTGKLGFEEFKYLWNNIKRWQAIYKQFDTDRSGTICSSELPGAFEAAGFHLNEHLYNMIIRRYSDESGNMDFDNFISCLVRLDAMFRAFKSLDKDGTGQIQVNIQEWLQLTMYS
Outline: (§1)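 Calpains preincubated with inhibitor at 25 °C in 50 mM Tris pH 7.5, 100 mM NaCl, 1 mM DTT; reaction started with 5-FAM/QXL520 FRET peptide plus CaCl2 for activation. Fluorescence (ex 490/em 520 nm) followed 10 min; rates from 1–5 min slopes, IC50 by 4-parameter logistic fit.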

[2] = molecular target: T2, Human Calpain 1/NS1 (Homo sapiens, UniProt P07384); assay: Biochemical inhibition of calpain 1, continuous fluorescence (FRET substrate) assay; conditions: mean; read-out: Human Calpain 1/NS1 IC50 (nM)_MEAN
T2 sequence (P07384 1-714): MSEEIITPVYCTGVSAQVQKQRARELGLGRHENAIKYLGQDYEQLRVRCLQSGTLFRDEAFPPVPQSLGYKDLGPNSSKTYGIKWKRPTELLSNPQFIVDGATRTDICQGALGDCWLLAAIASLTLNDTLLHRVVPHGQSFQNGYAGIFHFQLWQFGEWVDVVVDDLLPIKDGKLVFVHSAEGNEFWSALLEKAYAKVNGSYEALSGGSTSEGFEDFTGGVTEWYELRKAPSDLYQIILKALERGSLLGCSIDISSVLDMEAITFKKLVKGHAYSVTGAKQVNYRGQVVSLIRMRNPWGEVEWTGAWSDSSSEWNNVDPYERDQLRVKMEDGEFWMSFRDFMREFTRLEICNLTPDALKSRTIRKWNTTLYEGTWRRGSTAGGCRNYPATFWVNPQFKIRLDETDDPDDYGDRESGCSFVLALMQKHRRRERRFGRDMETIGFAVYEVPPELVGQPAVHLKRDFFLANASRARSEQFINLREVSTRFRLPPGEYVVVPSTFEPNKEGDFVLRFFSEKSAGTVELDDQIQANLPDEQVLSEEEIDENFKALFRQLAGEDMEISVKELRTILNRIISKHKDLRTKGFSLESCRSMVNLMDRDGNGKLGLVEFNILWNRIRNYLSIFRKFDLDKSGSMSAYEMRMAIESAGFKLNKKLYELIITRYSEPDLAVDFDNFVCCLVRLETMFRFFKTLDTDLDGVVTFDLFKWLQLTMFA
T2 sequence (P04632 1-268 partner): T1 sequence (P04632 1-268 partner)
Outline: as §1

[3] = tested on: calpain activity in SH-SY5Y cells; assay: SH-SY5Y cellular calpain activity, Suc-LLVY-AMC fluorescence assay; type: cell-based; conditions: Suc-LLVY-AMC substrate
Outline: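 SH-SY5Y cells (1% serum, seeded overnight at 37 C) pre-incubated 30 min with serially diluted compound, then given 100 uM cell-permeable Suc-LLVY-AMC. AMC fluorescence followed continuously on FLIPR; slopes taken as calpain activity, and IC50 from 4-parameter logistic fit of slope versus log concentration.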

[4] = tested on: calpain activity in SH-SY5Y cells (Spectrin); assay: SH-SY5Y Spectrin cellular calpain inhibition; type: cell-based
[5] = molecular target: T3, Human Calpain 9/NS1 (Homo sapiens, UniProt O14815); assay: Biochemical inhibition of calpain 9, continuous fluorescence (FRET substrate) assay; conditions: mean; read-out: Human Calpain 9/NS1 IC50 (nM)_MEAN
T3 sequence (O14815 1-690): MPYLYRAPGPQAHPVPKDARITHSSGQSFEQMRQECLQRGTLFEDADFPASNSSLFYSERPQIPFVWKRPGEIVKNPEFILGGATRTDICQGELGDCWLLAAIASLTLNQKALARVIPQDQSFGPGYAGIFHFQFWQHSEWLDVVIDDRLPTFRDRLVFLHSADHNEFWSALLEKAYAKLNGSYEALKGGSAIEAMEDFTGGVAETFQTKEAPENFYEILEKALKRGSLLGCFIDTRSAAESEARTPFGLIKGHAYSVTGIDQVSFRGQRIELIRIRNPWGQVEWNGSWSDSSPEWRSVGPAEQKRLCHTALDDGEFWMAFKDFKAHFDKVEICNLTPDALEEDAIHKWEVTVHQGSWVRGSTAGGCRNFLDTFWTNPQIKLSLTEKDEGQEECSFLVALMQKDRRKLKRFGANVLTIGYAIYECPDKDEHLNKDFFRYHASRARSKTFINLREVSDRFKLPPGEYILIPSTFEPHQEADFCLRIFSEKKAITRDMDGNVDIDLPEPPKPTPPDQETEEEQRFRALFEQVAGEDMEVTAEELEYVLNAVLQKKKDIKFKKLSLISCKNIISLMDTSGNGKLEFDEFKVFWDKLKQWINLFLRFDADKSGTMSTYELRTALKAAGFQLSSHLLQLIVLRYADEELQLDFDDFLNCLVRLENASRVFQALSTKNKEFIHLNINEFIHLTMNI
T3 sequence (P04632 1-268 partner): T1 sequence (P04632 1-268 partner)
Outline: as §1

| SMILES | IC50 [1] [nM] | IC50 [2] [nM] | IC50 [3] [µM] | IC50 [4] [µM] | IC50 [5] [nM] |
| --- | --- | --- | --- | --- | --- |
| O=CC(Cc1ccccc1)NC(=O)c1cccc2c1oc1ccccc12 (stereo not drawn) [Compound 46, N-(1-OXO-3-PHENYLPROPAN-2-YL)DIBENZO[b,a]FURAN-4-CARBOXAMIDE] | < 3000 | 3000 to 10000 | > 25 | 10 to 25 | 3000 to 10000 |
| Cn1c2ccccc2c2c(C(=O)NC(C=O)Cc3ccccc3)cccc21 (stereo not drawn) [Compound 47, 9-METHYL-N-(1-OXO-3-PHENYLPROPAN-2-YL)-9H-CARBAZOLE-4-CARBOXAMIDE] | < 3000 | < 3000 | < 10 | > 25 | < 3000 |
| O=CC(Cc1ccccc1)NC(=O)c1cccc2c1Oc1ccccc1O2 (stereo not drawn) [Compound 48] | < 3000 | < 3000 | > 25 | > 25 | < 3000 |

Other lines, results leading:

| IC50 [1] [nM] | IC50 [2] [nM] | IC50 [3] [µM] | IC50 [4] [µM] | IC50 [5] [nM] | SMILES |
| --- | --- | --- | --- | --- | --- |
| < 3000 | < 3000 | < 10 | 10 to 25 | < 3000 | COc1ccc(F)c(C(=O)NC(C=O)Cc2ccccc2)c1Cl (stereo not drawn) [Compound 43, 2-CHLORO-6-FLUORO-3-METHOXY-N-(1-OXO-3-PHENYLPROPAN-2-YL)BENZAMIDE] |
| < 3000 | < 3000 | < 10 | < 10 | < 3000 | O=CC(Cc1ccccc1)NC(=O)c1c(Cl)ccc2ccccc12 (stereo not drawn) [Compound 44, 2-CHLORO-N-(1-OXO-3-PHENYLPROPAN-2-YL)-1-NAPHTHAMIDE] |
| < 3000 | < 3000 | < 10 | 10 to 25 | < 3000 | O=CC(Cc1ccccc1)NC(=O)c1c(Cl)cccc1Cl (stereo not drawn) [Compound 45, 2,6-DICHLORO-N-(1-OXO-3-PHENYLPROPAN-2-YL)BENZAMIDE] |
